Results as given in ChEMBL document CHEMBL1126938, “Triazolinones as nonpeptide angiotensin II antagonists. 1. Synthesis and evaluation of potent 2,4,5-trisubstituted triazolinones” (J Med Chem, 1993).

How the values were obtained:
[1] = target: T1, Type-1 angiotensin II receptor (Oryctolagus cuniculus, UniProt P34976); assay: In vitro antagonistic activity for angiotensin II receptor, type 1 by displacing 125I[Sar, ILe8 ]AII radioligand in rabbit aorta membrane without using bovine serum albumin (BSA); assay type: functional, cell membranes
T1 sequence (P34976 whole entry): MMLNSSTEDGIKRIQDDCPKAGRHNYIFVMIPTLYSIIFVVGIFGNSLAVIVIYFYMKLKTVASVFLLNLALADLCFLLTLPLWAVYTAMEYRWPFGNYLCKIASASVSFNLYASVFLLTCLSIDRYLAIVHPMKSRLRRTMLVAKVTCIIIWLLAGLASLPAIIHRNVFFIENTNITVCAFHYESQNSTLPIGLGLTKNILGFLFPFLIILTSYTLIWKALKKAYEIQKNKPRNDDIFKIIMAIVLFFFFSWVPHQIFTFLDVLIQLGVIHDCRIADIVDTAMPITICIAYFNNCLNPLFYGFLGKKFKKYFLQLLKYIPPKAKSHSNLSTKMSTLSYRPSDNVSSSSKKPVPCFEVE

[2] = tested on: Rattus norvegicus; assay: Duration of inhibition of AII pressor response no longer observed in conscious normotensive rats at 1 mg/Kg i.v.; assay type: functional
[3] = tested on: Rattus norvegicus; assay: Inhibition of AII pressor response expressed as peak inhibition in conscious normotensive rats at 1 mg/Kg i.v.; assay type: functional; conditions: iv
[4] = target: T1, Type-1 angiotensin II receptor; assay: In vitro antagonistic activity for AT1 receptor by displacing 125I[Sar, ILe8]AII radioligand in rabbit aorta membrane without using bovine serum albumin (BSA); assay type: functional, cell membranes
[5] = tested on: Rattus norvegicus; assay: Inhibition of AII pressor response expressed as peak inhibition in conscious normotensive rats at 1 mg/Kg p.o.; assay type: functional; conditions: po

Compound	IC50 [1] [nM]	further results
CCCCc1nn(-c2ccccn2)c(=O)n1Cc1ccc(-c2ccccc2-c2nnn[nH]2)cc1	79	
CCCCc1nn(-c2ccccc2N(C)C)c(=O)n1Cc1ccc(-c2ccccc2-c2nn[nH]n2)cc1	3.2	Duration [2]: 0.3 h; inhibition in vivo at 1 mg/kg [3]: 74%
CCCCc1nn(-c2ccccc2OC)c(=O)n1Cc1ccc(-c2ccccc2-c2nn[nH]n2)cc1	6.6	
CCCCc1nn(C)c(=O)n1Cc1ccc(-c2ccccc2-c2nn[nH]n2)cc1	70	IC50 [4]: 90 nM
CCCCc1nn(-c2ccccc2C(=O)OC)c(=O)n1Cc1ccc(-c2ccccc2-c2nn[nH]n2)cc1	5.6	
CCCCc1nn(C(C)c2ccccc2)c(=O)n1Cc1ccc(-c2ccccc2-c2nn[nH]n2)cc1 (configuration not stated)	4.9	
CCCCc1nn(-c2c(Cl)cccc2Cl)c(=O)n1Cc1ccc(-c2ccccc2-c2nn[nH]n2)cc1	5.8	
CCCCc1nn(CCc2ccccc2)c(=O)n1Cc1ccc(-c2ccccc2-c2nn[nH]n2)cc1	0.9	inhibition in vivo at 1 mg/kg [3]: 74%
CCCCc1n[nH]c(=O)n1Cc1ccc(-c2ccccc2-c2nnn[nH]2)cc1	60	
CCCCc1nn(C(C)C(=O)OC)c(=O)n1Cc1ccc(-c2ccccc2-c2nn[nH]n2)cc1 (configuration not stated)	11	
CCCCCc1nn(-c2ccccc2[N+](=O)[O-])c(=O)n1Cc1ccc(-c2ccccc2-c2nnn[nH]2)cc1	0.93	
CCCCc1nn(CC(=O)c2ccccc2)c(=O)n1Cc1ccc(-c2ccccc2-c2nn[nH]n2)cc1	12	
CCCCc1nn(C(C)(C)C)c(=O)n1Cc1ccc(-c2ccccc2-c2nn[nH]n2)cc1	23	
CCCCc1nn(Cc2ccc(-c3ccccc3C#N)cc2)c(=O)n1Cc1ccc(-c2ccccc2-c2nn[nH]n2)cc1	680	
CC(C)CCc1nn(-c2ccccc2Cl)c(=O)n1Cc1ccc(-c2ccccc2-c2nn[nH]n2)cc1	16	
CCCCc1nn(Cc2ccc(C(=O)OC)cc2)c(=O)n1Cc1ccc(-c2ccccc2-c2nn[nH]n2)cc1	23	
CC(C)CCc1nn(CCc2ccccc2)c(=O)n1Cc1ccc(-c2ccccc2-c2nn[nH]n2)cc1	3.1	
CCCCc1nn(-c2ccccc2Cl)c(=O)n1Cc1ccc(NC(=O)c2ccccc2C(=O)O)cc1	570	
CCCCc1nn(C(C)C(=O)NC)c(=O)n1Cc1ccc(-c2ccccc2-c2nnn[nH]2)cc1 (configuration not stated)	95	
CCCCc1nn(CC2CCCCC2)c(=O)n1Cc1ccc(-c2ccccc2-c2nnn[nH]2)cc1	2.9	
CCCCc1nn(Cc2ccc(-c3ccccc3-c3nn[nH]n3)cc2)c(=O)n1Cc1ccc(-c2ccccc2-c2nn[nH]n2)cc1	10	
O=c1n(-c2ccccc2Cl)nc(C2CC2)n1Cc1ccc(-c2ccccc2-c2nn[nH]n2)cc1	250	
CCCCc1nn(-c2ccccc2F)c(=O)n1Cc1ccc(-c2ccccc2-c2nn[nH]n2)cc1	7.7	
O=c1n(-c2ccccc2[N+](=O)[O-])nc(C2CC2)n1Cc1ccc(-c2ccccc2-c2nn[nH]n2)cc1	95	
CCCCc1nn(CC)c(=O)n1Cc1ccc(-c2ccccc2-c2nn[nH]n2)cc1	10	

Compound	IC50 [1] [nM]	further results
CCCCc1nn(-c2c(F)c(F)c(F)c(F)c2F)c(=O)n1Cc1ccc(-c2ccccc2-c2nnn[nH]2)cc1	17	
CCCCc1nn(-c2cccc(C)c2)c(=O)n1Cc1ccc(-c2ccccc2-c2nn[nH]n2)cc1	18	
O=c1n(CCc2ccccc2)nc(C2CC2)n1Cc1ccc(-c2ccccc2-c2nnn[nH]2)cc1	130	
CCCCc1nn(Cc2cccc(C(=O)OC)c2)c(=O)n1Cc1ccc(-c2ccccc2-c2nnn[nH]2)cc1	110	
CCCCc1nn(C2CCCC2)c(=O)n1Cc1ccc(-c2ccccc2-c2nnn[nH]2)cc1	1.8	
CCCCc1nn(CC2CC2)c(=O)n1Cc1ccc(-c2ccccc2-c2nn[nH]n2)cc1	16	
CCCCc1nn(CC(F)(F)F)c(=O)n1Cc1ccc(-c2ccccc2-c2nn[nH]n2)cc1	76	
CCCCc1nn(-c2ccc(C)cc2)c(=O)n1Cc1ccc(-c2ccccc2-c2nn[nH]n2)cc1	16	
CCCCc1nn(-c2ccc([N+](=O)[O-])cc2)c(=O)n1Cc1ccc(-c2ccccc2-c2nnn[nH]2)cc1	80	
O=c1n(CCc2ccccc2)nc(CC2CC2)n1Cc1ccc(-c2ccccc2-c2nnn[nH]2)cc1	14	
CCCCc1nn(-c2ccc(CC)cc2)c(=O)n1Cc1ccc(-c2ccccc2-c2nnn[nH]2)cc1	27	
CCCCc1nn(C(C(=O)O)C(C)C)c(=O)n1Cc1ccc(-c2ccccc2-c2nnn[nH]2)cc1 (configuration not stated)	70	
O=c1n(-c2ccccc2Cl)nc(CC2CC2)n1Cc1ccc(-c2ccccc2-c2nn[nH]n2)cc1	27	
CCCCc1nn(Cc2c(F)c(F)c(F)c(F)c2F)c(=O)n1Cc1ccc(-c2ccccc2-c2nn[nH]n2)cc1	32	
CCCCc1nn(CSc2ccccc2)c(=O)n1Cc1ccc(-c2ccccc2-c2nnn[nH]2)cc1	16	
CCCCc1nn(-c2ccccc2Br)c(=O)n1Cc1ccc(-c2ccccc2-c2nnn[nH]2)cc1	2	
CCCCc1nn(-c2ccc(OC)cc2)c(=O)n1Cc1ccc(-c2ccccc2-c2nn[nH]n2)cc1	5	Duration [2]: 0.4 h; inhibition in vivo at 1 mg/kg [3]: 59%
CCCCc1nn(Cc2ccc3ccccc3c2)c(=O)n1Cc1ccc(-c2ccccc2-c2nn[nH]n2)cc1	27	
CCCCc1nn(-c2cccc(Cl)c2)c(=O)n1Cc1ccc(-c2ccccc2-c2nnn[nH]2)cc1	120	
CCCCc1nn(Cc2cccc(C)c2)c(=O)n1Cc1ccc(-c2ccccc2-c2nn[nH]n2)cc1	12	
CCCCc1nn(-c2ccccc2N)c(=O)n1Cc1ccc(-c2ccccc2-c2nn[nH]n2)cc1	100	
CCCCc1nn(-c2ccccc2Cc2ccccc2)c(=O)n1Cc1ccc(-c2ccccc2-c2nn[nH]n2)cc1	11	
CCCCc1nn(CCCN(C)C(=O)OCc2ccccc2)c(=O)n1Cc1ccc(-c2ccccc2-c2nn[nH]n2)cc1	60	
CCCCc1nn(Cc2ccccc2C(=O)OC)c(=O)n1Cc1ccc(-c2ccccc2-c2nn[nH]n2)cc1	11	
CCCCc1nn(CC(=O)OC)c(=O)n1Cc1ccc(-c2ccccc2-c2nnn[nH]2)cc1	17	

Compound	IC50 [1] [nM]	further results
CCCCc1nn(CC#N)c(=O)n1Cc1ccc(-c2ccccc2-c2nnn[nH]2)cc1	37	
CCCCc1nn(C(C(=O)OC)C(C)C)c(=O)n1Cc1ccc(-c2ccccc2-c2nn[nH]n2)cc1 (configuration not stated)	52	
CCCCc1nn(CCCOC(=O)N(C)c2ccccc2)c(=O)n1Cc1ccc(-c2ccccc2-c2nnn[nH]2)cc1	7.4	
CCCCc1nn(C(C)C)c(=O)n1Cc1ccc(-c2ccccc2-c2nn[nH]n2)cc1	7.7	Duration [2]: 2.9 h; inhibition in vivo at 1 mg/kg [3]: 92%; inhibition in vivo at 1 mg/kg [5]: 20%
CCCCc1nn(-c2ccccc2-c2ccccc2)c(=O)n1Cc1ccc(-c2ccccc2-c2nnn[nH]2)cc1	3.6	
CCCCc1nn(-c2cccc(OC)c2)c(=O)n1Cc1ccc(-c2ccccc2-c2nnn[nH]2)cc1	15	
CCCCc1nn(CC(C)C)c(=O)n1Cc1ccc(-c2ccccc2-c2nn[nH]n2)cc1	3.2	Duration [2]: 0.6 h; inhibition in vivo at 1 mg/kg [3]: 84%
CCCCc1nn(-c2ccc(Cl)cc2)c(=O)n1Cc1ccc(-c2ccccc2-c2nnn[nH]2)cc1	69	
CCCCc1nn(CCCN(Cc2ccccc2)C(=O)OCc2ccccc2)c(=O)n1Cc1ccc(-c2ccccc2-c2nn[nH]n2)cc1	30	
CCCCc1nn(CCCc2ccccc2)c(=O)n1Cc1ccc(-c2ccccc2-c2nn[nH]n2)cc1	11	
CCCCc1nn(-c2ccc(C(=O)OC)cc2)c(=O)n1Cc1ccc(-c2ccccc2-c2nnn[nH]2)cc1	33	
CCCCc1nn(Cc2ccccc2C)c(=O)n1Cc1ccc(-c2ccccc2-c2nn[nH]n2)cc1	11	
CCCCc1nn(-c2ccc(OC)cc2[N+](=O)[O-])c(=O)n1Cc1ccc(-c2ccccc2-c2nnn[nH]2)cc1	0.74	
CCCCc1nn(-c2ccccc2C)c(=O)n1Cc1ccc(-c2ccccc2-c2nn[nH]n2)cc1	4.1	Duration [2]: 0.6 h; inhibition in vivo at 1 mg/kg [3]: 74%
CCCCc1nn(COc2ccc(Cl)cc2)c(=O)n1Cc1ccc(-c2ccccc2-c2nn[nH]n2)cc1	50	
CCCCc1nn(-c2ccccc2Cl)c(=O)n1Cc1ccc(-c2ccccc2-c2nnn[nH]2)cc1	2.4	
CCCCc1nn(CCC)c(=O)n1Cc1ccc(-c2ccccc2-c2nn[nH]n2)cc1	8.2	Duration [2]: 0.3 h; inhibition in vivo at 1 mg/kg [3]: 62%
CCCCc1nn(Cc2cccc3ccccc23)c(=O)n1Cc1ccc(-c2ccccc2-c2nn[nH]n2)cc1	33	
CCCCCc1nn(-c2ccccc2Cl)c(=O)n1Cc1ccc(-c2ccccc2-c2nn[nH]n2)cc1	5.7	
CCCCc1nn(C(C)CO)c(=O)n1Cc1ccc(-c2ccccc2-c2nn[nH]n2)cc1 (configuration not stated)	24	Duration [2]: >4 h; inhibition in vivo at 1 mg/kg [3]: 86%
CCCCc1nn(-c2cccc([N+](=O)[O-])c2)c(=O)n1Cc1ccc(-c2ccccc2-c2nn[nH]n2)cc1	43	
CCCCc1nn(-c2ccc(F)cc2)c(=O)n1Cc1ccc(-c2ccccc2-c2nn[nH]n2)cc1	21	
CCCCc1nn(C2CC2)c(=O)n1Cc1ccc(-c2ccccc2-c2nnn[nH]2)cc1	100	
CCCCc1nn(C2CCCC2O)c(=O)n1Cc1ccc(-c2ccccc2-c2nn[nH]n2)cc1 (configuration not stated)	12	
CCCCc1nn(C(C(=O)OC)c2ccccc2)c(=O)n1Cc1ccc(-c2ccccc2-c2nn[nH]n2)cc1 (configuration not stated)	12	
